One block for each compound: values may come before it.
Assays:
[1] = target: LmDHFR (Leishmania major, UniProt P07382); test: biochemical
[2] = target: Leishmania major PTR1 (LmPTR1); details: read-out: Ki LmPTR1; cited from earlier work
[3] = target: TbDHFR (Trypanosoma brucei brucei, UniProt Q27783); test: biochemical
[4] = target: L. major DHFR (LmDHFR); details: read-out: Ki LmDHFR; cited from earlier work
[5] = target: human DHFR (hDHFR); details: read-out: Ki hDHFR; cited from earlier work
[6] = tested on: T. brucei brucei Lister 427 bloodstream forms; test: Efficacy against T. brucei bloodstream forms, resazurin-based assay; assay type: cell-based, Trypanosoma brucei brucei; details: 72 h; for inhibition at 10 µM: Trypanosoma brucei, read-out: % inhibition T. brucei at 10 µM ± SD; for % inhibition T. brucei at 10 µM ± SD: 10 µM compound, T. brucei brucei Lister 427 bloodstream form
[7] = target: T1, hDHFR (Homo sapiens, UniProt P00374); test: biochemical; details: for hDHFR IC50: off-target
T1 sequence (P00374 1-187): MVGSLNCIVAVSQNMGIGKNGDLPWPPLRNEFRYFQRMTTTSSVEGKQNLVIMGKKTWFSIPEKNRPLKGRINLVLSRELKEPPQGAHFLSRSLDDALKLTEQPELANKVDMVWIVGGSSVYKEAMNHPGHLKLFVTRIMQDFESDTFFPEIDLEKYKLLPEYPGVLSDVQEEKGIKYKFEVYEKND

[8] = target: T2, LmPTR1 (Leishmania major, UniProt Q01782); test: biochemical
T2 sequence (Q01782 1-288): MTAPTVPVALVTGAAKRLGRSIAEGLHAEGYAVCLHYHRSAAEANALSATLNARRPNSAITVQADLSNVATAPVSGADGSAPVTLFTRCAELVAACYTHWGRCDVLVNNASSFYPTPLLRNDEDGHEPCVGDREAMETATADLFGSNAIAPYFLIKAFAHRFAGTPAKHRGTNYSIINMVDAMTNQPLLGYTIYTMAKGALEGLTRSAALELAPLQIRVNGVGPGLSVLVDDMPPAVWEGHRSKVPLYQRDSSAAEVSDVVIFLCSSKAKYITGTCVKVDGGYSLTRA

[9] = target: hTS (Homo sapiens, UniProt P04818); test: biochemical
[10] = Cytotoxicity on THP-1-derived macrophages, colorimetric MTT assay; assay type: cell-based; details: human

Sequence of TbDHFR (Q27783 whole entry): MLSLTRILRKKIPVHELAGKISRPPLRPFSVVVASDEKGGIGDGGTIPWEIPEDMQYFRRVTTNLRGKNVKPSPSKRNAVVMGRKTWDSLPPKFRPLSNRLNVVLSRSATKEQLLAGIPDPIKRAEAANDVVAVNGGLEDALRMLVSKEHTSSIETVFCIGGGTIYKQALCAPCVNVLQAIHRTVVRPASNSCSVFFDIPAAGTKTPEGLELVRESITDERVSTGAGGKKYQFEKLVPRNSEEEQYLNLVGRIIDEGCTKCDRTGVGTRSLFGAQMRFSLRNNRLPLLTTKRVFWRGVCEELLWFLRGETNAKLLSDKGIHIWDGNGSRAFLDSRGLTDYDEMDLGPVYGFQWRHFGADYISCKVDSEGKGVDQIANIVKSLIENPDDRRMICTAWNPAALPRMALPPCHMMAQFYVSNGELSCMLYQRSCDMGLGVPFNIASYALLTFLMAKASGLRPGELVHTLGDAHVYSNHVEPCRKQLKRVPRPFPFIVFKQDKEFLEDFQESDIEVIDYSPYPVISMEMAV
Sequence of LmDHFR (P07382 whole entry): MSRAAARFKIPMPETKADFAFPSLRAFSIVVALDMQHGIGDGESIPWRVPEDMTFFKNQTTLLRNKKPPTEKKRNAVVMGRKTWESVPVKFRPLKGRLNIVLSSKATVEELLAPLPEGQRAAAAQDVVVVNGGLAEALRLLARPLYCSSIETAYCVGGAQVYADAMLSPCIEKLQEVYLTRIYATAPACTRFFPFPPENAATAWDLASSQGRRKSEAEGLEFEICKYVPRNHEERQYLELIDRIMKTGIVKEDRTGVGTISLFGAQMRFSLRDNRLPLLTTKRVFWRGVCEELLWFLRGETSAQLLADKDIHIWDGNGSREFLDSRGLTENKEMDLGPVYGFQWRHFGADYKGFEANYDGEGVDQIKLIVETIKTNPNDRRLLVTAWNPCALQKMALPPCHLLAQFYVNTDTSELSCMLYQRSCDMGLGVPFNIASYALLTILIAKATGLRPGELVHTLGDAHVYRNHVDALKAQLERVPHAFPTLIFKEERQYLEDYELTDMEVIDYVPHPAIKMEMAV
Sequence of hTS (P04818 whole entry): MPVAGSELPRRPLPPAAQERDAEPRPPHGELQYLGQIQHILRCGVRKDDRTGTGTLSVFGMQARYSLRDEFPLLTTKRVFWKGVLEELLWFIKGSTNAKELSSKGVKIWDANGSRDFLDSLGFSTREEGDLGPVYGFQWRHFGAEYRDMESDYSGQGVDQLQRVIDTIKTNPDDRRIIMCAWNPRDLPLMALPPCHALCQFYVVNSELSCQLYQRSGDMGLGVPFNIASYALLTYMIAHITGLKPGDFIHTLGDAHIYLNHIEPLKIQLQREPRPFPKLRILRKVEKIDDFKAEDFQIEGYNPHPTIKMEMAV

SMILES: COC(=O)C1CCN(C(=O)c2ccc(N(C)Cc3cnc4nc(N)nc(N)c4n3)cc2)CC1 [Compound 1b, methyl-1-(4-(((2,4-diaminopteridin-6-yl)methyl)(methyl)amino)benzoyl)piperidine-4-carboxylate, reference compound]
- IC50 [1]: 300 nM
- Ki [2]: 40 nM
- IC50 [3]: 300 nM

SMILES: COC(=O)C1CCN(C(=O)c2ccc(NCc3cnc4nc(N)nc(N)c4n3)cc2)CC1 [Compound 1c, methyl-1-(4-(((2,4-diaminopteridin-6-yl)methyl)amino)benzoyl)piperidine-4-carboxylate]
- Ki [4]: 4000 nM
- Ki [2]: 100 nM
- Ki [5]: 10000 nM

SMILES: COC(=O)C1CCN(C(=O)c2ccc(N(Cc3ccccc3)Cc3cnc4nc(N)nc(N)c4n3)cc2)CC1 [Compound 2c]
- IC50 [3]: ~1000 nM
- inhibition at 10 µM [6]: 75%

SMILES: Nc1nc(N)c2nc(CNc3ccc(C(=O)NCCc4ccccc4)cc3)cnc2n1 [Compound 4e]
- inhibition at 10 µM [6]: 40%

SMILES: COc1ccc(CNC(=O)c2ccc(CNCc3cnc4nc(N)nc(N)c4n3)cc2)cc1 [Compound 4f]
- % inhibition T. brucei at 10 µM ± SD [6]: inactive

SMILES: Nc1nc(N)c2nc(CNCc3ccc(Oc4ccccc4)cc3)cnc2n1 [Compound 4h]
- % inhibition T. brucei at 10 µM ± SD [6]: inactive

SMILES: COc1cc(Oc2ccc(CNCc3cnc4nc(N)nc(N)c4n3)cc2)cc(OC)c1OC [Compound 4j]
- % inhibition T. brucei at 10 µM ± SD [6]: inactive

SMILES: CCN(Cc1cnc2nc(N)nc(N)c2n1)c1ccc(C(=O)c2ccccc2)cc1 [Compound 5d]
- CC50 [10]: 25000 to 50000 nM

SMILES: COc1ccc(Oc2ccc(CN(Cc3ccccc3)Cc3cnc4nc(N)nc(N)c4n3)cc2)cc1 [Compound 5e]
- CC50 [10]: 12500 to 25000 nM

SMILES: COc1ccc(Oc2ccc(CN(C)Cc3cnc4nc(N)nc(N)c4n3)cc2)cc1 [Compound 5f]
- CC50 [10]: 12500 to 25000 nM

Other lines, results leading:

- IC50 [7]: 4000 nM
- IC50 [3]: 500 nM
SMILES: Nc1nc(N)c2nc(CNc3cccc4ccccc34)cnc2n1 [Compound 3c]

- LmDHFR IC50 [1]: do not show inhibitory activity
- TbDHFR IC50 [3]: do not show inhibitory activity
SMILES: Nc1nc(N)c2nc(C(=O)NCc3ccccc3)cnc2n1 [Compound 3d]

- LmDHFR IC50 [1]: do not show inhibitory activity
- TbDHFR IC50 [3]: do not show inhibitory activity
SMILES: Nc1nc(N)c2nc(C(=O)NCc3cccc(C(F)(F)F)c3)cnc2n1 [Compound 3e]

- IC50 [1]: 100 nM
SMILES: CCOC(=O)C1CCN(C(=O)c2ccc(N(C)Cc3cnc4nc(N)nc(N)c4n3)cc2)CC1 [Compound 4a]

- IC50 [8]: 100 nM
SMILES: CN(Cc1cnc2nc(N)nc(N)c2n1)c1ccc(C(=O)N2CCCCC2)cc1 [Compound 4c]

- LmDHFR IC50 [1]: inactive
- hDHFR IC50 [7]: inactive
- TbDHFR IC50 [3]: inactive
SMILES: COc1ccc(Oc2ccc(CNCc3cnc4nc(N)nc(N)c4n3)cc2)cc1 [Compound 4i]

- hDHFR IC50 [7]: inactive
- IC50 [9]: 29000 nM
SMILES: NC(=O)C1CCCN1C(=O)Cc1ccc(N(CCCO)Cc2cnc3nc(N)nc(N)c3n2)cc1 (centres unmarked) [Compound 5b]

- IC50 [1]: 200 nM
SMILES: CCOC(=O)C1CCN(C(=O)c2ccc(N(CC)Cc3cnc4nc(N)nc(N)c4n3)cc2)CC1 [Compound 5c]
